These results are taken from PMC8347134, “Preparation of Antiproliferative Terpene-Alkaloid Hybrids by Free Radical-Mediated Modification of ent-Kauranic Derivatives” (Molecules, 2021).

The subject of one experiment is NCI-H460. Further details: method as in earlier work. Particulars: reference drugs; cited from earlier work.
The subject of experiment [1] is HCT-116 (colorectal carcinoma). Briefly: Cell proliferation assay (IncuCyte). The format is cell-based. As to the method:
(§1) A parallel cytotoxicity assay was performed on non-cancerous retina cells (hTERT RPE-1) in order to estimate the selectivity of the investigated compounds towards tumor cells. The inhibition of cell proliferation was calculated as IC50 by interpolation based on the semi-log dose response.
(§2) All cell lines were cultured as recommended by the suppliers. Culture media were purchased from Gibco Life Technologies, USA, and supplemented with 10% fetal bovine serum (HyClone, GE Healthcare Life Sciences, Logan, UT, USA). […] All stock solutions were prepared in DMSO.
(§3) After overnight incubation, cells were treated with the test compounds at seven different concentrations ranging from 100 to 6.4 × 10^−3 µM. […] The plates were incubated at 37 °C and monitored for 72 h in an IncuCyte® device (Essen BioScience Inc., Ann Arbor, MI, USA) for real-time imaging. Images were taken every 3 h, with one field imaged per well under 10× magnification. Cell growth was then quantified based on the percent cellular confluence as analysed by the IncuCyte® image analysis software and used to calculate IC50 values by linear interpolation. All tests have been performed in duplicate and the average values have been calculated.

The subject of experiment [2] is NCI-H460 (lung carcinoma). The experiment in a line: Cell proliferation assay (IncuCyte). Format: cell-based. As to the method:
as §1, §2, §3

For experiment [3], the system named is HL-60 (acute myeloid leukemia). Briefly: Cell proliferation assay (IncuCyte). The format is cell-based. Particulars: Homo sapiens, HL-60; 72 h, duplicate, mean ± deviation. The procedure: as §1, §2, §3
Experiment [4] concerns K-562 (chronic myeloid leukemia). Briefly: Cell proliferation assay (IncuCyte). Format: cell-based. Particulars: Homo sapiens, K562; 72 h, duplicate, mean ± deviation. As to the method:
as §1, §2, §3

Experiment [5] has as its system Z-138 (non-Hodgkin lymphoma). Briefly: Cell proliferation assay (IncuCyte). Format: cell-based. The procedure:
as §1, §2, §3

The subject of experiment [6] is DND-41 (acute lymphoblastic leukemia). The experiment in a line: Cell proliferation assay (IncuCyte). The format is cell-based. As to the method:
as §1, §2, §3

Experiment [7] concerns Capan-1 (pancreatic adenocarcinoma). The experiment in a line: Cell proliferation assay (IncuCyte). Format: cell-based. The procedure: as §1, §2, §3
Experiment [8] relates to seven different tumor cell lines. Briefly: Proliferation assays, best value over the seven tumor cell lines. Format: cell-based. The procedure:
as §1, §2, §3

A further experiment concerns hTERT RPE-1. The experiment in a line: Parallel cytotoxicity assay on non-cancerous retina cells. The format is cell-based. Particulars: hTERT-RPE1, 72 h, duplicate, mean ± deviation. The procedure: as §1, §2, §3

One may read the IC50 as the midpoint of a concentration-inhibition curve. Regarding `N.N.[Cl][Pt][Cl]` [Cisplatin], the IC50 in the experiment on NCI-H460 is 5.33 µM.
In the case of `CCOC(=O)CC[C@@]1(N=[N+]=[N-])C[C@@]23CC[C@H]4[C@@](C)(CCC[C@@]4(C)C(=O)OC)[C@@H]2CC[C@@H]1C3` [Compound 11], the IC50 in experiment [1] (Homo sapiens, HCT-116, 72 h, duplicate, mean ± deviation) is 1 ± 0.4 µM; in experiment [2] (Homo sapiens, NCI-H460, 72 h, duplicate, mean ± deviation), 1.3 ± 0.1 µM; in experiment [3] it was 3 ± 1.4 µM; in experiment [4], 8.8 ± 2.2 µM; in experiment [5] (Homo sapiens, Z-138, 72 h, duplicate, mean ± deviation), 0.5 ± 0.2 µM; in [6] (DND41, 72 h, duplicate, mean ± deviation), 1.4 ± 0.3 µM. Moreover, the half-maximal inhibitory concentration (IC50) in [7] (Homo sapiens, CAPAN-1, 72 h, duplicate, mean ± deviation) was found to be 1.7 ± 0.5 µM; in experiment [8] (lowest IC50 over the tumor cell lines (Figure 4), read-out: IC50 min) it was 0.5 ± 0.2 µM; in the experiment with hTERT RPE-1 it was 1.8 ± 0.4 µM. The “SI HCT-116” value in experiment [1] (ratio IC50 hTERT RPE-1 / IC50 HCT-116) stood at 1.8. Moreover, the “SI NCI-H460” value in experiment [2] (ratio IC50 hTERT RPE-1 / IC50 NCI-H460) is given as 1.4. Further, the “SI Z-138” value in experiment [5] (ratio IC50 hTERT RPE-1 / IC50 Z-138) worked out at 3.6. The “SI DND-41” value in experiment [6] (ratio IC50 hTERT RPE-1 / IC50 DND-41) amounted to 1.3. In addition, in experiment [7] (ratio IC50 hTERT RPE-1 / IC50 Capan-1), the “SI Capan-1” value was 1.1. This compound had an SImax in experiment [8] (highest selectivity index over the tumor cell lines (Figure 4)) of 3.6. Moreover, in experiment [8] (highest selectivity indices), the “IC50 for retina (hTERT RPE-1) cells fold higher than for cancerous cells” value was “up to 43 fold”.
